The values that follow come from patent US11840495B2, “Compositions and methods related to di-substituted bicyclo[2.2.1] heptanamine-containing compounds” (The Broad Institute, Inc., priority 2020, dated 2023).

What is called EC50 is the concentration that produces a half-maximal response.

Structures can show the parent of a compound that is named as a salt. Where two headings read alike, the source gives them in different places.

One experiment has as its system MUC1-wt. Briefly: Immunofluorescence imaging of MUC1-wt in P cells (Example 2). It counts as cell-based. As to conditions: for EC50: 48 hr incubation, MUC1-wt; for WT EMax / WT ECMax (%): 48 hr; for WT EMax: DMSO = 0, JQ1 = −100% activity, in %; for WT ECMax (%): DMSO = 0, JQ1 (250 nM) = −100% activity. The procedure:
(§1) P cells were seeded 24 hr prior to compound treatment at a density of 12,000 cells/well in 384 well Cell Carrier Ultra plates (6057308, Perkin Elmer), pre-coated with 0.25 mg/mL Synthemax II SC Substrate (3535, Corning). Compounds were used at 5 doses (35, 3.5, 0.35, 0.035 and 0.0035 μM) for the primary screen and 10 doses (16, 5.6, 1.8, 0.6, 0.21, 0.07, 0.02, 0.008, 0.002 and 0.0008 μM) for the following screens. The compounds, in two replicates, were transferred from compound source plates to the cell plates using the HighRes Pin Tool. DMSO was used as a negative control and JQ1 (250 nM) (a bromodomain inhibitor) was chosen as a positive control, based on earlier studies showing its potent effect on reducing total MUC1 mRNA levels (data not shown). After 48 hr incubation, cells were fixed for 20 min in 4% PFA (Electron Microscopy Sciences) in PBS, washed twice, then permeabilized (10 min) with 0.5% Triton-X100 (X100-100ML, Sigma-Aldrich) in PBS and washed once more. Cells were blocked for 10 min at RT with Blocking solution (100 mM Tris HCL pH8; 150 mM NaCL; 5 g/L Blocking Reagent [11096176001, Roche]), then incubated 90 min at RT with one of the following primary antibodies in Roche Blocking solution: 1:500, monoclonal Fab-A-VSH anti-MUC1-fs, AbD22655.2, Bio-Rad; 1:2000, monoclonal mouse anti-MUC1 (214D4), 05-652-KC, Millipore; 1:1000, monoclonal, Rabbit anti-GM130 (D6B1) XP, 12480, Cell signaling technology. The primary antibody cocktail was incubated at RT for 1.5 hr, followed by four PBS wash cycles. The secondary antibody cocktail contained four components that were all prepared at a 1:1000 dilution in the Roche blocking solution and consisted of Alexa Fluor® 488-conjugated AffiniPure F(ab′)2 Fragment Goat anti-Human IgG, 109-546-097, Jackson Immunoresearch; Alexa Fluor® 647-conjugated Goat anti-Rabbit IgG, A-21246, Thermo Fisher Scientific®; Alexa Fluor® 546 Goat anti-mouse IgG, A-21123, Thermo Fisher Scientific® and Hoechst 33342 stain (62249, Thermo Fisher Scientific®). The secondary antibody cocktail was incubated at RT for 45 min, followed by four PBS wash cycles. Finally, plates were sealed with a Plate Loc plate and stored in Liconic incubator at 10° C. until imaging. Following image analysis, three parameters were selected, i) MUC1-fs and ii) MUC1-wt total cytoplasm intensity (averaged per cell) and iii) cell number as was detected by Hoechst 33342 stained nuclei. The levels of MUC1-fs and MUC1-wt found following DMSO and JQ1 were defined as 0 and −100% activity, respectively. The values obtained for all compounds were normalized accordingly. Cell number was normalized to DMSO control.

The test system of a further experiment is MUC1-fs. As to the kind of experiment: Immunofluorescence imaging of MUC1-fs in P cells (Example 2). It counts as cell-based. Particulars: for EC50: 48 hr incubation, MUC1-fs; for Emax / ECMax (%): 48 hr; for Emax: DMSO = 0, JQ1 = −100% activity, in %; for ECMax (%): DMSO = 0, JQ1 (250 nM) = −100% activity. The procedure:
as §1

Consider `NC1C2CCC(C2)C12CC1CC1C2` (racemic) [Compound 236, rac-spiro[bicyclo[2.2.1]heptane-2,3′-bicyclo[3.1.0]hexan]-3-amine], for which the values for the EC50 with MUC1-wt (read-out: WT EC50) and in the experiment with MUC1-fs (read-out: EC50) were greater than 16 µM and 0.962 µM, respectively. In the experiment with MUC1-wt, the “WT EMax” value is −20.3. In the experiment with MUC1-fs, this compound registered an Emax of −89.6.
On to `C[C@@]1(Cc2ccccc2)[C@H]2CC[C@H](C2)[C@H]1N.Cl` (racemic) [Compound 207], for which the half-maximal effective concentration (EC50) in the experiment on MUC1-wt (read-out: WT EC50 (Cytoplasm)) and in the experiment on MUC1-fs (read-out: EC50(Spot)) was greater than 32 µM throughout. Moreover, in the experiment on MUC1-wt, the “WT ECMax (%)” value is 5.9%. Further, the “ECMax (%)” value with MUC1-fs is recorded as −25.6%.
Turning to `CC(=O)OC1CC2(CC1OC(C)=O)C1CCC(C1)C2N.Cl` (racemic) [Compound 230, rac-3-aminospiro[bicyclo[2.2.1]heptane-2,1′-cyclopentane]-3′,4′-diyl diacetate hydrochloride], the EC50 in the experiment with MUC1-wt (read-out: WT EC50) and with MUC1-fs (read-out: EC50) was greater than 16 µM throughout. Further, the “WT EMax” value with MUC1-wt is recorded as −16.1. This compound had an Emax in the experiment with MUC1-fs of −12.8.
With `NC1C2CCC(C2)C12CCC(O)C2` (racemic) [Compound 249A, rac-3-aminospiro[bicyclo[2.2.1]heptane-2,1′-cyclopentan]-3′-ol], the EC50 in the experiment with MUC1-wt (read-out: WT EC50) was greater than 16 µM; in the experiment with MUC1-fs (read-out: EC50) it was 2.2 µM. Moreover, in the experiment with MUC1-wt, the “WT EMax” value was −7.2. For the same compound, in the experiment on MUC1-fs, the Emax was −98.1.
On to `C[C@@H]1CC[C@@]2(C1)[C@@H]1CC[C@@H](C1)[C@@H]2N.Cl` [Compound 211-P2-B], for which the EC50 with MUC1-wt (read-out: WT EC50 (Cytoplasm)) and in the experiment on MUC1-fs (read-out: EC50(Spot)) was greater than 32 µM in each case. Also, the “WT ECMax (%)” value with MUC1-wt stood at 4.75%. The “ECMax (%)” value with MUC1-fs is recorded as −10.93%.
For `Cl.N[C@@H]1[C@@H]2CC[C@@H](C2)[C@]12CC=CCC2` (racemic) [Compound 213], the values for the EC50 in the experiment on MUC1-wt (read-out: WT EC50 (Cytoplasm)) and in the experiment with MUC1-fs (read-out: EC50(Spot)) were greater than 1.8 µM and 0.02 µM, respectively. Further, the “WT ECMax (%)” value in the experiment with MUC1-wt is roughly 175%. The “ECMax (%)” value with MUC1-fs was −86.49%.
In the case of `C[C@@H]1CC[C@]2(C1)[C@@H]1CC[C@@H](C1)[C@@H]2N.Cl` [Compound 210-P2-A], the EC50 is greater than 32 µM with MUC1-wt (read-out: WT EC50 (Cytoplasm)) and 1.04 µM with MUC1-fs (read-out: EC50(Spot)). Moreover, the “WT ECMax (%)” value in the experiment on MUC1-wt is listed as −8.9%. Besides, in the experiment with MUC1-fs, the “ECMax (%)” value was −62.63%.
In the case of `CC(C)[C@@]1(C)[C@H]2CC[C@H](C2)[C@@H]1N.Cl` [Compound 246-B, (1R,2S,3S,4S)-3-isopropyl-3-methylbicyclo[2.2.1]heptan-2-amine hydrochloride], the EC50 in the experiment with MUC1-wt (read-out: WT EC50) is greater than 16 µM; in the experiment with MUC1-fs (read-out: EC50), 6.99 µM. Also, the “WT EMax” value with MUC1-wt came out at 6.2. For the same compound, the Emax in the experiment with MUC1-fs was −69.3.
For the compound `CC1CC[C@]2(C1)[C@H]1CC[C@H](C1)[C@H]2N.Cl` (mixture of isomers) [Compound 210], the EC50 with MUC1-wt (read-out: WT EC50 (Cytoplasm)) is greater than 32 µM; with MUC1-fs (read-out: EC50(Spot)) it was 0.12 µM. Besides, the “WT ECMax (%)” value in the experiment with MUC1-wt is −10.67%. Also, the “ECMax (%)” value in the experiment with MUC1-fs is reported as −62.47%.
Take `Cl.N[C@@H]1[C@@H]2CC[C@@H](C2)C12CCCCCC2` (racemic) [Compound 215]: the EC50 was determined as 8.87 µM with MUC1-wt (read-out: WT EC50 (Cytoplasm)) and 0.11 µM in the experiment on MUC1-fs (read-out: EC50(Spot)). Further, the “WT ECMax (%)” value in the experiment on MUC1-wt is on record as 63%. Further, in the experiment on MUC1-fs, the “ECMax (%)” value was −56.54%.
The corresponding values for `C[C@@H]1CCC[C@]2(C1)[C@H]1CC[C@H](C1)[C@H]2N.Cl` [Compound 214-P1-A] are greater than 32 µM, 10.5 µM, 3.96% and −26.27%.
On the same counts, the results for `C[C@@H]1CC[C@@]2(C1)[C@H]1CC[C@H](C1)[C@H]2N.Cl` [Compound 210-P1-B] are greater than 32 µM, 15.5 µM, −4.05% and −26.85%.
Regarding `Cl.NC1(c2ccccc2)C2CCC(C2)C12CCCC2` (racemic) [Compound 250, rac-3-phenylspiro[bicyclo[2.2.1]heptane-2,1′-cyclopentan]-3-amine hydrochloride], the half-maximal effective concentration (EC50) with MUC1-wt (read-out: WT EC50) was greater than 16 µM; in the experiment on MUC1-fs (read-out: EC50), 7.83 µM. The “WT EMax” value in the experiment with MUC1-wt is 8.2. Moreover, in the experiment on MUC1-fs, the Emax is listed as −86.3.
On to `CC1(C)[C@H]2CC[C@H](C2)[C@H]1N` (single isomer, unassigned) [Compound 201-P1, hydrochloride], for which the EC50 with MUC1-wt (read-out: WT EC50 (Cytoplasm)) turned out to be 10.3 µM; in the experiment on MUC1-fs (read-out: EC50(Spot)), 0.088 µM. In addition, the “WT ECMax (%)” value in the experiment with MUC1-wt is on record as 63%. Moreover, in the experiment with MUC1-fs, the “ECMax (%)” value is listed as −94.91%.
On the same counts, the results for `Cl.N[C@@H]1[C@@H]2CC[C@@H](C2)C12CCC2` (racemic) [Compound 208, rac-spiro[bicyclo[2.2.1]heptane-3,1′-cyclobutan]-2-endo-amine hydrochloride] are greater than 5.6 µM, 0.13 µM, roughly 125% and −65.35%.
Turning to `Cl.N[C@H]1[C@@H]2CC[C@@H](C2)C12CCCC(C(=O)N1CCCCC1)C2` (stereo partly drawn) [Compound 227-1, ((1S,3S,4R)-3-aminospiro[bicyclo[2.2.1]heptane-2,1′-cyclohexan]-3′-yl)(piperidin-1-yl)methanone hydrochloride], the EC50 in the experiment with MUC1-wt (read-out: WT EC50) was greater than 16 µM; in the experiment on MUC1-fs (read-out: EC50), 3.6 µM. Moreover, the “WT EMax” value in the experiment on MUC1-wt is recorded as −7.0. Besides, the Emax in the experiment on MUC1-fs was −79.5.
The corresponding values for `C[C@]1(c2ccccc2)[C@H]2CC[C@H](C2)[C@H]1N` (racemic) [Compound 218, rac-(1R,2R,3R,4S)-3-methyl-3-phenylbicyclo[2.2.1]heptan-2-amine] are greater than 16 µM, 13.5 µM, −15.4 and −54.7.
For the compound `CC1(CC2CC2)C2CCC(C2)C1N.Cl` (racemic) [Compound 244, rac-3-(cyclopropylmethyl)-3-methylbicyclo[2.2.1]heptan-2-amine hydrochloride], the EC50 in the experiment on MUC1-wt (read-out: WT EC50) and with MUC1-fs (read-out: EC50) was greater than 16 µM in each case. In addition, the “WT EMax” value in the experiment with MUC1-wt (hydrochloride) is given as −9.0. For the same compound, the Emax in the experiment with MUC1-fs (hydrochloride) is listed as −35.0.
In the case of `C[C@@H]1CCC[C@@]2(C1)[C@@H]1CC[C@@H](C1)[C@@H]2N.Cl` [Compound 214-P2-B], the EC50 was greater than 32 µM in the experiment with MUC1-wt (read-out: WT EC50 (Cytoplasm)) and 15.1 µM in the experiment with MUC1-fs (read-out: EC50(Spot)). The “WT ECMax (%)” value in the experiment with MUC1-wt is listed as −4.96%. Moreover, in the experiment with MUC1-fs, the “ECMax (%)” value is listed as −29.12%.
For the compound `CC(C)C1(C)C2CCC(C2)C1N.Cl` (racemic) [Compound 245, rac-3-isopropyl-3-methylbicyclo[2.2.1]heptan-2-amine hydrochloride], the 50% effective concentration (EC50) came out at 4.5 µM in the experiment with MUC1-wt (read-out: WT EC50) and 0.011 µM in the experiment on MUC1-fs (read-out: EC50). Further, the “WT EMax” value with MUC1-wt stood at 106.2. The compound also came in with an Emax in the experiment with MUC1-fs of −90.2.
For the compound `CCC1(CC)[C@H]2CC[C@H](C2)[C@H]1N` [Compound 204-P1], the EC50 in the experiment with MUC1-wt (read-out: WT EC50 (Cytoplasm)) was 3.32 µM; in the experiment with MUC1-fs (read-out: EC50(Spot)), 0.03 µM. The “WT ECMax (%)” value in the experiment with MUC1-wt stood at 197.55%. The “ECMax (%)” value with MUC1-fs is −118.54%.
Take `Cl.N[C@H]1[C@@H]2CC[C@@H](C2)C12CCCCC2` [Compound 231, (1S,3S,4R)-spiro[bicyclo[2.2.1]heptane-2,1′-cyclohexan]-3-amine hydrochloride]: the results for the concentration for a half-maximal effect (EC50) with MUC1-wt (read-out: WT EC50) and with MUC1-fs (read-out: EC50) were greater than 16 µM and 1.63 µM, respectively. The “WT EMax” value in the experiment with MUC1-wt is −7.0. In addition, the Emax in the experiment with MUC1-fs is listed as −76.5.
The corresponding values for `NC1C2CCC(C2)C12CC1CCC2C1` (racemic) [Compound 238-B, rac-2,2′-spirobi[bicyclo[2.2.1]heptan]-3-amine] are 5.6 µM, 0.029 µM, 40.7 and −106.4.
The corresponding values for `Cl.N[C@@H]1[C@@H]2CC[C@@H](C2)C12CCC[C@H](O)C2` (stereo partly drawn) [Compound 241-A, (1S,3R,3′S,4R)-3-aminospiro[bicyclo[2.2.1]heptane-2,1′-cyclohexan]-3′-ol hydrochloride] are greater than 16 µM, greater than 16 µM, −5.7 and −11.4.
